Test results published in patent publication US6900033B2, “Methods and compositions for modulating ACE-2 activity” (Human Genome Sciences, Inc., priority 2001, dated 2005).
“And” between values parts separate entries of the source, which are not always exact repeats. Equal entries are not always repeated. “Also recorded” adds a separate entry of the source. Positions of bridges follow the written chain, without caps; N, C: chain ends.

What was measured:
ACE-2 [1] = target: T1, ACE-2 (Homo sapiens, UniProt Q9BYF1); details: literature (Donoghue 2000; Tipnis 2000); cited from earlier work
T1 construct: nucleotides corresponding to the extracellular domain (M1-S740); FLAG; made in house; host or cells: Sf9 insect cells (recombinant baculovirus, transfer vector pA2); purified from conditioned media
T1 sequence (Q9BYF1 18-740): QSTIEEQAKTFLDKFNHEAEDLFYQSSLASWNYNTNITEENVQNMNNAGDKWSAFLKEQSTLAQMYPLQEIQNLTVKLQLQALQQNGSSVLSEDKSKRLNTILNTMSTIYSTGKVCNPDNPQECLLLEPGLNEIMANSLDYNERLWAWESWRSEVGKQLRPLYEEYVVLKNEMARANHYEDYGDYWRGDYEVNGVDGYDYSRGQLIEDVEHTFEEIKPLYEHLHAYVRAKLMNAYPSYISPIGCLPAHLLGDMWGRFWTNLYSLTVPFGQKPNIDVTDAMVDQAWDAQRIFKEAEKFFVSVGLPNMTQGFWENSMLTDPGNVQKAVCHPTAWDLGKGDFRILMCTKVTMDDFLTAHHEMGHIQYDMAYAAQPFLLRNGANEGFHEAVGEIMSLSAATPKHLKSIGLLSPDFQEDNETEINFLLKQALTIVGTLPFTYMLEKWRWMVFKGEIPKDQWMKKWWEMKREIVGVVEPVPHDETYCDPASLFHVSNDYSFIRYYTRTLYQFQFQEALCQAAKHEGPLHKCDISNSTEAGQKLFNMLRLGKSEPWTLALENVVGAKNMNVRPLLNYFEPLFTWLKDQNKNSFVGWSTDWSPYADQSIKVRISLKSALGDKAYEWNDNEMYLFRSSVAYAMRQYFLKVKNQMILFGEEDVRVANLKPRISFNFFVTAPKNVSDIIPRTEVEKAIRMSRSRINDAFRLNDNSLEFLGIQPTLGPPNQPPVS

ACE-2 [2] = target: T1, ACE-2; assay: Fluorometric ACE-2 inhibition assay with peptide M-2195 as substrate; format: biochemical; details: ACE-2 activity, M-2195 substrate, enzyme pre-incubated 30 minutes with inhibitor, 100 mM TRIS pH 7.4
Procedure: Assay mixture was prepared first by pre-incubating (30 minutes, room temperature) the enzyme with the inhibitor (0.45 μg ([…]) ACE-2, 0-0.5 μM inhibitor rage, up to 90 […] volume with 100 mM TRIS pH 7.4, 0.1% Tween-20, 0.4% DMSO) in each well, in triplicate, by dispensing volumes using a repeat pipetter (Rainin) into a 96-well clear-bottom back plate (Costar, 07-200-590). […] Substrate stock (10 μL of 10× concentration) was added to each well to be tested in blocks of three vertically down the plate. The reaction was monitored on a Spectrafluor Plus (Tecan) at an excitation wavelength of 340 nm and an emission wavelength of 400 nm (+/−35 nm) every 30 seconds for a time period of 10 minutes.
ACE-2 cleaves off the C-terminal lysine from the peptide with a concomitant increase in fluorescence signal.
The assays were performed in 96-well clear-bottom black plates (Costar, 07-200-590). In each well, 0.45 μg (5 pmoles) of ACE-2 is added to 90 μL of an assay solution containing 100 mM TRIS at pH 7.4, 0.1% Tween, and 0.4% DMSO. Substrate stock at 10 μL of 10× concentration is added to each well (for example, 10 μL of 1 mM stock for a final 100 μM concentration). The reaction was monitored on a Spectrafluor Plus (Tecan) at an excitation wavelength of 340 nm and an emission wavelength of 400 nm (+/−35 nm) every 30 seconds up to 10 minutes. All samples were measured in triplicate.

[3] = system: isolated aortic vascular rings; assay: Developed isometric tension of isolated rat aortic vascular rings; details: for potentiation of angiotensin II-mediated vasoconstriction: peptide combined with angiotensin II
Description: The effects of graded doses of A1-9 (Fields et al., Peptide Research 4: 95-101 (1991)) or A1-10 (substrate control) alone or in combination (Tallarida, Drug Synergism and Dose-Effect Data Analysis, Chapman and Hall/CRC, New York (2000), Tallarida et al., Life Science 61: PL417-425 (1997)) with angiotensin II were examined on isolated aortic vascular rings developed tension in response to vasoactive substances. Aortas were removed from mature male Sprague-Dawley rats, cleared of connective tissue, and cut into 1 mm rings. Rings were mounted to an isometric force transducer and placed in Krebs-Henseleit solution bubbled with 95% 02/5% C02 at 37° C. Rings were exposed to a 2 g preload, relaxed and then exposed to various concentrations of angiotensin peptides alone or in combination. Following angiotensin peptide dosing, rings were fully constricted with KCl to determine the maximum degree of vasoconstriction.
The maximum tension developed by A1-9 was minimal and always less than that of angiotensin II.

anesthetized dogs = details: literature (Oparil 1971); cited from earlier work
isolated rat aorta = details: literature (Oparil 1971); cited from earlier work
anesthetized rats = details: literature (Oparil 1971); cited from earlier work
[4] = system: awake, free-ranging Sprague-Dawley rats; assay: Arterial pressure in awake, free-ranging Sprague-Dawley rats, intravenous infusion; format: in vivo, rat
Procedure: To investigate the effects of A1-9 on arterial pressure, A1-9 was administered to awake, free-ranging Sprague-Dawley rats via indwelling intravenous and arterial catheters. Intravenous infusion of A1-9 (1-3 μg/kg/min) in the awake rat produced a dose-dependent tonic increase in mean arterial pressure to a maximum of approximately 30 mmHg (FIG. 2). […] These responses seen with A1-9 were similar in magnitude to those induced by angiotensin II.
To examine any interactions induced by coadministration of A1-9 and angiotensin II, arterial pressure was monitored in the awake rat after they received either A1-9 (1 μg/kg/min) or saline coinfused with angiotensin 11 (1-100 ng/kg/min).

[5] = intravenous infusion 1-3 μg/kg/min, awake rat

For `C[C@H](CS)C(=O)N1CCC[C@H]1C(=O)O` [captopril], the “block of ACE-2 conversion of angiotensin I to angiotensin 1-9” value (ACE-2 [1]) is listed as “not blocked”.
For “Ac-AGEGNCFLIGPWCFEFGTEGGG-NH2 (disulfide 6-13 (inferred)) [DX-504]”, the Inhibition (ACE-2 [2]) was “−”.
With “Ac-AGVYFCFDWEQDCDEMGTEGGG-NH2 (disulfide 6-13 (inferred)) [DX-528]” the Inhibition (ACE-2 [2]) was “−”.
With “Ac-AGWVLCFEWEDCDEKGTEGGG-NH2 (disulfide 6-12 (inferred)) [DX-527]” the Inhibition (ACE-2 [2]) was “−”.
In the case of “Ac-GDDDDCGWIGFANFHLCLHGDPEGGG-NH2 (disulfide 6-17 (inferred)) [DX-510]”, the Inhibition (ACE-2 [2]) is reported as “−”.
With “Ac-GSDQNCFAMYCFEFAPGEGGG-NH2 (disulfide 6-11 (inferred)) [DX-503]” the Inhibition (ACE-2 [2]) was “−”.
For “Ac-GSLEMCEALFCVEFAPGEGGG-NH2 (disulfide 6-11 (inferred)) [DX-502]”, the Inhibition (ACE-2 [2]) was “−”.
In the case of “Ac-GSNDYCTVFTGALFCLDFAPEGGG-NH2 (disulfide 6-15 (inferred)) [DX-507]”, the Inhibition (ACE-2 [2]) is reported as “−”.
In the case of “angiotensin I (DRVYIHPFHL; Angiotensin-1; UniProt P01019 25-34, looked up) [substrate control; the ACE and ACE-2 substrate]”, the “potentiation of angiotensin II-mediated vasoconstriction” value [3] is reported as “failed to potentiate”.
In the case of “des-Leu^10-angiotensin I (DRVYIHPFH; Angiotensin 1-9; UniProt P01019 25-33, looked up) [A1-9, nonapeptide formed by removal of the C-terminal leucine from angiotensin I]”, the pressor activity (anesthetized dogs) is given as “weak pressor activity”, the vasoconstrictor activity (isolated rat aorta) is given as “weak vasoconstrictor” and the pressor activity (anesthetized rats) is given as “weak pressor activity”. The “Al-9 % Max. Developed Force” value ([3]; Emax, A1-9 alone, 1-30 nM, mature rat aortic rings, % of KCl maximum, one value per experiment 1-5, listed as Al-9) was 3.5% and 0% and 7.5% and 6.4% and 3.2%, the “potentiation of angiotensin II-mediated vasoconstriction” value [3] was “synergistic or supraadditive potentiation” and the “vasoconstrictor activity of the peptide alone” value ([3]; rat aortic rings) was “no effect on vascular tone; also recorded: virtually devoid of activity”. The “factor of increase of the relative potency of angiotensin II beyond simple additive potentiation” value ([3]; shift of angiotensin II dose-effect curve by A1-9, FIG. 1) was 11.6 (95% confidence limits of 3.02-44.7), the “effect on the pressor response to angiotensin II” value ([4]; coinfused with angiotensin II 1-100 ng/kg/min, A1-9 at 1 μg/kg/min) was “potentiated the pressor response elicted by angiotensin II in an additive fashion” and the heart rate [4, 5] was “decreased in a dose-dependent manner”. For the same molecule, the “maximum increase in mean arterial pressure” value [4, 5] was “approximately 30 mmHg” and the “pulse pressure (systolic - diastolic)” value [4, 5] was “elevated”.
